One data set has as its target T1, Kir1.1 (Homo sapiens, UniProt P48048).
T1 construct: expressed in transfected cells
T1 sequence (P48048 1-391): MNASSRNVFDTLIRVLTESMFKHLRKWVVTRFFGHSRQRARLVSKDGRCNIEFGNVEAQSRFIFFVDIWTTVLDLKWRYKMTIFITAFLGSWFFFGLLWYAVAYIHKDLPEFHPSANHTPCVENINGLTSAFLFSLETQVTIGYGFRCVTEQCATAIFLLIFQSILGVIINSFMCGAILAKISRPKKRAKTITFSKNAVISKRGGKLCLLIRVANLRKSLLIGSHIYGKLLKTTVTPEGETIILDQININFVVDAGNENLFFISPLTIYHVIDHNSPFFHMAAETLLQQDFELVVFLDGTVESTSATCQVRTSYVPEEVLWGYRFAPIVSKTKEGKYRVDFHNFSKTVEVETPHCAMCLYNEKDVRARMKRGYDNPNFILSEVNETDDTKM
The experiment in a line: Thallium flux selectivity assay Kir1.1. The data set is classed as cell-based. The protocol: Quantitative thallium flux assays of Kir6.1/SUR2B activity were performed essentially as described previously for Kir6.2/SUR1 ([Raphemot et al., 2014]; [Kharade et al., 2019]). Stable T-Rex-HEK293-Kir6.1/SUR2B cells or transiently transfected HEK293T cells were plated in polyamine-coated, clear-bottomed, black-walled 384-well plates and were cultured (37°C/5% CO2) overnight in Dulbecco’s modified Eagle’s medium (Gibco, Carlsbad, CA, 11995-065) containing 10% FBS (2 mM Penicillin-Streptomycin). The following day, cells were washed with assay buffer (i.e., Hanks’ balanced salt solution/20 mM HEPES) and loaded for 1 hour with thallium sensor dye Brilliant Thallium (Ion Bioscience, San Marcos, TX) at room temperature. Dye-loaded cells were washed with assay buffer and transferred to a Panoptic Kinetic Imaging Plate Reader (Wavefront Bioscience, Franklin, TN). Control and test compound treatments were for 4 minutes prior to adding 0.5 mM chloride-free thallium stimulus buffer (Ion Bioscience) to initiate thallium flux. […] Selectivity assays against other Kir channels were performed essentially as described previously ([Kharade et al., 2018]; [McClenahan et al., 2022]).

The nature of data set [1]: Brain:plasma distribution in rat. The conditions noted are these: male, Sprague Dawley, brain and plasma, IV 0.2 mg/kg, 15 minutes postdose. In kind it is in vivo. Here is the method: VU0542270 was formulated as a solution in ethanol, PEG400, and saline (1:4:5 v/v, respectively) and administered to male Sprague Dawley rats (n = 1) intravenously at 0.2 mg/kg. At 15 minutes postdose, a blood sample was collected terminally into chilled K2EDTA anticoagulant-fortified tubes and immediately placed on wet ice. The blood sample was then centrifuged (1700 rcf, 5 minutes, 4°C) to obtain a plasma sample. At the same postadministration time point(s), a whole-brain sample was obtained by rapid dissection, rinsing with PBS, and immediate freezing in individual tissue collection boxes (dry ice). All brain and plasma samples were stored at −80°C until analysis by LC-MS/MS. In vivo brain:plasma distribution partition coefficient of VU0542270 was determined from the observed animal brain versus plasma concentrations.
Plasma samples from the in-life phases of the studies were thawed at ambient temperature (benchtop), and then aliquots (20 µL per sample) were transferred to a 96-shallow-well (V-bottom) plate. […]
Prepared samples were injected (10 µL each) onto an AB Sciex triple quad-4500 mass spectrometer system with an Agilent 1290 Infinity Binary Pump and multisampler. […] Quantitation of VU0542270 was performed via AB Sciex Analyst software using the raw analyte:IS peak area ratios. […]

One may read the IC50 as the concentration that gives 50% inhibition. Low values mean greater potency, high ones weaker potency. A word on the Kp: it is the ratio of the level in a tissue or fluid to that in plasma or blood.

Regarding `Cc1nc(-c2cccs2)sc1CNC(=O)Nc1cccs1` [VU0542270], on Kir1.1, the IC50 was more than 30 µM. In addition, the Kp at 0.25 h in data set [1] amounted to 0.11.

Source of the values: publication PMC10877733, “Discovery and Characterization of VU0542270, the First Selective Inhibitor of Vascular Kir6.1/SUR2B KATP Channels” (Molecular Pharmacology, 2024).
